Experimental data as given in BigSolDB 2.1.

C=C1CC[C@H](O)C/C1=C/C=C1\CCC[C@]2(C)[C@@H]([C@H](C)CCCC(C)C)CC[C@@H]12
solubility (mole fraction) (in acetone, 248.2 K): 0.00611
solubility (mole fraction) (in acetone, 253.2 K): 0.00805
solubility (mole fraction) (in acetone, 258.2 K): 0.0106
solubility (mole fraction) (in acetone, 263.2 K): 0.0143
solubility (mole fraction) (in acetone, 268.2 K): 0.0192
solubility (mole fraction) (in acetone, 273.2 K): 0.028
solubility (mole fraction) (in acetonitrile, 248.2 K): 7.61e-05
solubility (mole fraction) (in acetonitrile, 253.2 K): 9.25e-05
solubility (mole fraction) (in acetonitrile, 258.2 K): 0.000133
solubility (mole fraction) (in acetonitrile, 263.2 K): 0.00016
solubility (mole fraction) (in acetonitrile, 268.2 K): 0.000252
solubility (mole fraction) (in acetonitrile, 273.2 K): 0.000311
solubility (mole fraction) (in ethanol, 248.2 K): 0.0532
solubility (mole fraction) (in ethanol, 253.2 K): 0.0646
solubility (mole fraction) (in ethanol, 258.2 K): 0.0796
solubility (mole fraction) (in ethanol, 263.2 K): 0.0965
solubility (mole fraction) (in ethanol, 268.2 K): 0.116
solubility (mole fraction) (in ethanol, 273.2 K): 0.14
solubility (mole fraction) (in ethyl acetate, 248.2 K): 0.0219
solubility (mole fraction) (in ethyl acetate, 253.2 K): 0.0287
solubility (mole fraction) (in ethyl acetate, 258.2 K): 0.0366
solubility (mole fraction) (in ethyl acetate, 263.2 K): 0.0478
solubility (mole fraction) (in ethyl acetate, 268.2 K): 0.0639
solubility (mole fraction) (in ethyl acetate, 273.2 K): 0.0883
solubility (mole fraction) (in methanol, 248.2 K): 0.00204
solubility (mole fraction) (in methanol, 253.2 K): 0.00249
solubility (mole fraction) (in methanol, 258.2 K): 0.00337
solubility (mole fraction) (in methanol, 263.2 K): 0.0046
solubility (mole fraction) (in methanol, 268.2 K): 0.00625
solubility (mole fraction) (in methanol, 273.2 K): 0.00993
solubility (mole fraction) (in n-propanol, 248.2 K): 0.0647
solubility (mole fraction) (in n-propanol, 253.2 K): 0.0873
solubility (mole fraction) (in n-propanol, 258.2 K): 0.111
solubility (mole fraction) (in n-propanol, 263.2 K): 0.136
solubility (mole fraction) (in n-propanol, 268.2 K): 0.163
solubility (mole fraction) (in n-propanol, 273.2 K): 0.193
